Where a name gives a salt, the structure may show the parent alone.
Target: T1, Syk tyrosine kinase (Homo sapiens, UniProt P43405)
T1 construct: purchased Carna Biosciences, Inc
Assay: Test for Syk tyrosine kinase inhibitory activity (ELISA)
Format: biochemical
Settings: Syk tyrosine kinase (Carna Biosciences), 25 μM ATP in substrate solution, 30° C. 1 hour, n=2; read-out: Evaluation (IC50, concentration inhibiting the tyrosine kinase activity at 50%)
In short: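 Syk kinase (0.025 nM stock before addition) with 625 nM biotinylated peptide and 25 μM ATP (substrate-solution levels) in Tris pH 7.5, MgCl2, DTT; 1 h at 30 °C on streptavidin plates. Phosphotyrosine detected by HRP anti-pTyr antibody, TMB, A450; IC50 by non-linear regression.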

Row | SMILES | IC50 [µM]
1 | N#Cc1ccnc(Nc2cc(C3CC3)cc(-c3ccc4ccnc(N5CC[C@@H](F)C5)c4c3)n2)c1 [Example 168, 2-[(4-cyclopropyl-6-{1-[(3R)-3-fluoropyrrolidin-1-yl]isoquinolin-7-yl}-pyridin-2-yl)amino]pyridine-4-carbonitrile hydrochloride] | 0.05 to 0.5
2 | N#Cc1ccnc(Nc2cc(C3CC3)cc(-c3ccc4ccnc(N5CCNC5=O)c4c3)n2)c1 [Example 171, 2-({4-cyclopropyl-6-[1-(2-oxo-imidazolidin-1-yl)isoquinolin-7-yl]pyridin-2-yl}amino)pyridine-4-carbonitrile hydrochloride] | 0.005 to 0.05
3 | N#Cc1ccnc(Nc2cc(C3CC3)cc(-c3ccc4ncn([C@H]5CC[C@H](N)CC5)c4c3)n2)c1 [Example 172, 2-({6-[1-(trans-4-aminocyclohexyl)-1H-benzimidazol-6-yl]-4-cyclopropylpyridin-2-yl}amino)pyridine-4-carbonitrile hydrochloride] | 0.005 to 0.05
4 | N#Cc1ccnc(Nc2cc(C3CC3)cc(-c3ccc4ncn(Cc5ccc(=O)[nH]c5)c4c3)n2)c1 [Example 174, 2-({4-cyclopropyl-6-[1-[(6-oxo-1,6-dihydropyridin-3-yl)methyl]-1H-benzimidazol-6-yl}pyridin-2-yl)amino]pyridine-4-carbonitrile hydrochloride] | 0.005 to 0.05
5 | N#Cc1ccnc(Nc2cc(C3CC3)cc(-c3ccc4nc([C@H]5CC[C@H](O)CC5)[nH]c4c3)n2)c1 [Example 175, 2-({4-cyclopropyl-6-[2-(trans-4-hydroxycyclohexyl)-1H-benzimidazol-6-yl]pyridin-2-yl}amino)pyridine-4-carbonitrile hydrochloride] | 0.05 to 0.5
6 | N#Cc1ccnc(Nc2cc(C3CC3)cc(-c3ccc4ncn([C@H]5CC[C@H](C#N)CC5)c4c3)n2)c1 [Example 176, 2-({6-[1-(trans-4-cyanocyclohexyl)-1H-benzimidazol-6-yl]-4-cyclopropylpyridin-2-yl}amino)pyridine-4-carbonitrile hydrochloride] | 0.005 to 0.05
7 | N#Cc1ccnc(Nc2cc(C3CC3)cc(-c3cnc(N4CCS(=O)(=O)CC4)c(F)c3)n2)c1 [Example 177, 2-{[4-cyclopropyl-6′-(1,1-dioxidethiomorpholin-4-yl)-5′-fluoro-2,3′-bipyridin-6-yl]amino}pyridine-4-carbonitrile hydrochloride] | 0.005 to 0.05

Results, then the molecule that gave them:

Row | IC50 [µM] | SMILES
8 | 0.005 to 0.05 | N#Cc1ccnc(Nc2cc(C3CC3)cc(-c3ccc4ccnc(N5CCNCC5)c4c3)n2)c1 [Example 163, 2-({4-cyclopropyl-6-[1-(piperazin-1-yl)isoquinolin-7-yl]pyridin-2-yl}amino)pyridine-4-carbonitrile hydrochloride]
9 | 0.005 to 0.05 | N#Cc1ccnc(Nc2cc(C3CC3)cc(-c3ccc4ccnc(N5CCC(O)CC5)c4c3)n2)c1 [Example 164, 2-({4-cyclopropyl-6-[1-(4-hydroxypiperidin-1-yl)isoquinolin-7-yl]pyridin-2-yl}amino)pyridine-4-carbonitrile hydrochloride]
10 | 0.005 to 0.05 | N#Cc1ccnc(Nc2cc(C3CC3)cc(-c3ccc4ccnc(N5CC[C@@H](O)C5)c4c3)n2)c1 [Example 165, 2-[(4-cyclopropyl-6-{1-[(3R)-3-hydroxypyrrolidin-1-]isoquinolin-7-yl}pyridin-2-yl)amino]pyridine-4-carbonitrile hydrochloride]
11 | 0.005 to 0.05 | N#Cc1ccnc(Nc2cc(C3CC3)cc(-c3ccc4ccnc(N5CC(O)C5)c4c3)n2)c1 [Example 166, 2-({4cyclopropyl-6-[1-(3-hydroxyazetidin-1-yl)isoquinolin-7-yl]pyridin-2-yl}amino)pyridine-4-carbonitrile hydrochloride]
12 | 0.005 to 0.05 | N#Cc1ccnc(Nc2cc(C3CC3)cc(-c3ccc4ccnc(N5CCC[C@H]5CO)c4c3)n2)c1 [Example 167, 2-[(4-cyclopropyl-6-{1-[(2S)-2-(hydroxymethyl)pyrrolidin-1-yl]isoquinolin-7-yl}pyridin-2-yl)amino]pyridine-4-carbonitrile hydrochloride]
13 | 0.005 to 0.05 | N#Cc1ccnc(Nc2cc(C3CC3)cc(-c3ccc4ccnc(N5CC[C@@H](N)C5)c4c3)n2)c1 [Example 169, hydrochloride]
14 | < 0.005 | N#Cc1ccnc(Nc2cc(C3CC3)cc(-c3ccc4ncn(C5CCNCC5)c4c3)n2)c1 [Example 173, hydrochloride]

Reference: US20130225548A1, “Pyridine Derivative and Medicinal Agent” (NIPPON SHINYAKU CO., LTD., priority 2010, published 2013)
